Experimental data taken from US20240245631A1, “METHODS OF TREATING LENNOX-GASTAUT SYNDROME USING FENFLURAMINE” (ZOGENIX INTERNATIONAL LIMITED, priority 2015, published 2024).

Tests used:
[1] = tested on: child suffering pattern sensitivity-induced seizures; details: single case, resistant to anticonvulsive treatment; cited from earlier work
[2] = tested on: Lennox-Gastaut patients; assay: Open-label Phase 2 add-on study of low-dose fenfluramine in Lennox-Gastaut patients; assay type: in vivo, human
Description: The efficacy of fenfluramine as an add-on treatments in Lennox-Gastaut patients is studied in a Phase 2 Clinical Trial. The study protocol is described and preliminary results are presented here.
An open-label, non-placebo controlled add-on study was designed to assess the efficacy and safety of low-dose add-on fenfluramine across a range of fenfluramine doses (0.2, 0.4, 0.8 mg/kg/day, to a maximum of 30 mg/day). The trial was conducted over a 20 week period, with responders eligible for follow-on treatment, with follow-up appointments at three month intervals.
Patients were recruited from childhood epilepsy clinics in Leuven and Antwerp, Belgium, and selected for inclusion in the study according to criteria comprising a combination of age, physical and psychological characteristics, and resistance to treatment with conventional therapies. Details of selection criteria are provided below.
Study duration is 20 weeks, ending at week 20 after inclusion of 20 patients, i.e., 20 weeks following the enrollment of the 20th patient. Patients who respond to treatment are enrolled in a follow-on study and assessed on an ongoing basis.
Patients are examined during six clinical visits (V1 through V6) scheduled at four week intervals, ending with V6 at week 20. […] At each visit, endpoints and safety criteria are assessed, and dosages adjusted as necessary.
Add-on treatment is begun at V2. […] Endpoints and safety criteria are assessed (seizure counting, adverse effects, pregnancy testing, and quality of life indicators (CGI, sleep scale)). […]
At each of V3-V5, endpoints and safety criteria are again assessed. […]
At V6, endpoints and safety criteria are again assessed. […]
Fenfluramine: Oral fenfluramine solution (2.5 mg/ml or 5 mg/ml) is provided by Zogenix Pharma. […] Patient compliance is assessed by control of oral solution quantity at each visit and collection of seizure diary with notification of drug intake. […]
Safety assessment: Treatment safety is assessed using a combination of physical examination, blood testing, cardiac evaluation, and adverse event reporting. […]

[3] = tested on: self-induced photosensitive seizures; details: four cases; cited from earlier work
[4] = tested on: children with refractory epilepsy; details: 0.5 to 1 mg/kg/day; cited from earlier work

**Q.** What does the source list for `CCNC(C)Cc1cccc(C(F)(F)F)c1` (stereo not drawn) [fenfluramine, 3-trifluoromethyl-N-ethylamphetamine]?
**A.** self-induced seizures [1]: successfully terminated these self-induced seizures; total seizure frequency ([2]; 3 patients receiving 0.2 mg/kg/day, add-on, interim results): significant decreases in total seizure frequency; serious side effects ([2]; 9 patients receiving add-on fenfluramine, interim results): None of the 9 patients receiving fenfluramine reported serious side effects; seizure frequency (overall interim conclusion) ([2]; low-dose add-on treatment, early interim data): effective in reducing seizure frequency; response of self-induced photosensitive seizures [3]: responded to treatment with fenfluramine; number of seizures experienced by the patients [4]: reduction in the number of seizures
